{"source": "patent US8624053B2", "about": "“Method to produce a stable dry ionic-bonded creatine α ketoglutarate of high oral absorbability” (priority 2012, dated 2014)", "test_system": "athletes", "settings": "about half the dose provided from other preparations", "from_the_text": "(The actual dose depended on the athlete.)\nThe performance evaluations were made by experienced coaches, overlooking standard athletic tasks."}
{"substance": "creatine α-ketoglutarate [product of the invention]", "values": [{"measurement": "time after delivery to peak performance", "result": "ten"}]}
